According to US9409905B2, “Antibacterial compounds and methods for use” (PTC THERAPEUTICS, INC., priority 2011, dated 2016):
Converted amounts (≈) assume the structure as drawn.

Columns and labels:
[1] = tested on: E. coli LZ3111; test: Antibacterial activity, MIC, quinolone resistant strain (Table 2); type: cell-based; details: Escherichia coli, LZ3111, read-out: MIC LZ3111
Method in brief: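 MIC values (μg/mL) came from a microbroth dilution assay, scored as the lowest drug concentration at which no growth was visible by eye.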

[2] = tested on: E. coli ELZ4251; test: Antibacterial activity, MIC, multi-drug resistant clinical isolate (Table 3); type: cell-based; details: Escherichia coli
Text: (§1) The antibacterial activity from a microbroth dilution method may be presented as the minimum inhibitory concentration (MIC in μg/mL). The MIC value is the lowest concentration of drug which prevents macroscopically visible growth under test conditions.
(§2) Antibacterial activity of test compounds against E. coli ELZ4000 and E. coli ELZ4251 multi-drug resistant clinical isolates is shown in Table 3.

[3] = tested on: Staphylococcus aureus (S. aureus) 29213; test: Antibacterial activity, microbroth dilution MIC (Table 1); type: cell-based; details: microbroth dilution, Gram-positive S. aureus 29213, read-out: MIC, 29213
Method in brief: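 Microbroth dilution was used. MIC, in μg/mL, is the lowest drug concentration preventing macroscopically visible growth under the test conditions.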

[4] = tested on: Escherichia coli (E. coli) BAS849; test: as above; type: cell-based; details: microbroth dilution, super sensitive Gram-negative E. coli BAS849, read-out: MIC, BAS849
Method in brief: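 Growth inhibition by microbroth dilution. MIC = lowest μg/mL with no visible growth. Strain 25922 is the control Gram-negative; BAS849 is hypersensitive.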

[5] = tested on: Klebsiella pneumoniae (K. pneumoniae) 35657; test: Antibacterial activity, MIC (Table 4); type: cell-based; details: K. pneumoniae 35657, read-out: MIC, 35657
Method in brief: (§3)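 MIC (μg/mL) by microbroth dilution, taken as the lowest drug concentration preventing macroscopically visible growth. MXX strains are multi-drug resistant clinical isolates.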

[6] = tested on: Acinetobacter baumannii (A. baumannii) BAA747; test: Antibacterial activity, MIC (Table 4); type: cell-based; details: A. baumannii BAA747, read-out: MIC, BAA747
Method in brief: as §3

[7] = tested on: Pseudomonas aeruginosa (P. aeruginosa) 27853; test: Antibacterial activity, MIC (Table 5); type: cell-based; details: P. aeruginosa 27853, read-out: MIC, 27853
Method in brief: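 Values are MICs in μg/mL, read as the lowest concentration at which no growth is visible by eye. They were determined by a microbroth dilution method.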

[8] = tested on: A. baumannii MXX2240; test: Antibacterial activity, MIC, resistant strain (Table 4); type: cell-based; details: Acinetobacter baumannii, MXX2240; resistant A. baumannii MMX2240, multi-drug resistant clinical isolate; read-out: MIC, MMX2240
Method in brief: as §3

[9] = tested on: K. pneumoniae MXX1232; test: as above; type: cell-based; details: Klebsiella pneumoniae, MXX1232; resistant K. pneumoniae MMX1232, multi-drug resistant clinical isolate; read-out: MIC, MMX1232
Method in brief: as §3

[10] = tested on: E. coli 25922; test: Antibacterial activity, microbroth dilution MIC (Table 1); type: cell-based, Escherichia coli; details: Escherichia coli; microbroth dilution; control Gram-negative E. coli 25922 strain; read-out: MIC, 25922
Method in brief: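 Broth microdilution; endpoint = no macroscopic growth; value = lowest inhibiting concn, μg/mL.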

[11] = tested on: E. coli ELZ4000; test: Antibacterial activity, MIC, multi-drug resistant clinical isolate (Table 3); type: cell-based; details: Escherichia coli, ELZ4000, read-out: MIC ELZ4000
Text: as §1, §2

| Structure (SMILES) | MIC [1] [µg/mL] | MIC [2] [µg/mL] | MIC [3] [µg/mL] | MIC [4] [µg/mL] | MIC [5] [µg/mL] | MIC [6] [µg/mL] | MIC [7] [µg/mL] | MIC [8] [µg/mL] | MIC [9] [µg/mL] | MIC [10] [µg/mL] | MIC [11] [µg/mL] |
| --- | --- | --- | --- | --- | --- | --- | --- | --- | --- | --- | --- |
| CCc1c(-c2ccc3sccc3c2)[nH]c(=O)c(C(=O)O)c1O [Cpd 367, 6-(benzo[b]thiophen-5-yl)-5-ethyl-4-hydroxy-2-oxo-1,2-dihydropyridine-3-carboxylic acid] | 3.5 to 12.5 (≈ 11.1 to 39.6 µM) | 12.5 to 150 (≈ 39.6 to 476 µM) | 1 to 3.5 (≈ 3.17 to 11.1 µM) | < 1 | 12.5 to 150 (≈ 39.6 to 476 µM) | 12.5 to 150 (≈ 39.6 to 476 µM) | 12.5 to 150 (≈ 39.6 to 476 µM) | 3.5 to 12.5 (≈ 11.1 to 39.6 µM) | 12.5 to 150 (≈ 39.6 to 476 µM) | 12.5 to 150 (≈ 39.6 to 476 µM) | – |
| CCc1c(-c2ccc3c(c2)cc(CN2CCCNCC2)n3C)[nH]c(=O)c(C(=O)O)c1O.Cl.Cl [Cpd 239, 6-(2-((1,4-diazepan-1-yl)methyl)-1-methyl-1H-indol-5-yl)-5-ethyl-4-hydroxy-2-oxo-1,2-dihydropyridine-3-carboxylic acid dihydrochloride] | 3.5 to 12.5 | 3.5 to 12.5 | 12.5 to 150 | 1 to 3.5 | – | – | 12.5 to 150 | – | – | 3.5 to 12.5 | 12.5 to 150 |
| CCCCCCCCNCc1cc2cc(-c3[nH]c(=O)c(C(=O)O)c(O)c3CC)ccc2n1C [Cpd 337, 5-ethyl-4-hydroxy-6-(1-methyl-2-((octylamino)methyl)-1H-indol-5-yl)-2-oxo-1,2-dihydropyridine-3-carboxylic acid] | 3.5 to 12.5 (≈ 7.72 to 27.6 µM) | 12.5 to 150 (≈ 27.6 to 331 µM) | 1 to 3.5 (≈ 2.2 to 7.72 µM) | < 1 | 12.5 to 150 (≈ 27.6 to 331 µM) | 12.5 to 150 (≈ 27.6 to 331 µM) | 12.5 to 150 (≈ 27.6 to 331 µM) | 12.5 to 150 (≈ 27.6 to 331 µM) | 12.5 to 150 (≈ 27.6 to 331 µM) | 12.5 to 150 (≈ 27.6 to 331 µM) | – |
| CCc1cc(C(=O)O)c(=O)[nH]c1-c1ccc2occc2c1 [Cpd 364, 6-(benzofuran-5-yl)-5-ethyl-2-oxo-1,2-dihydropyridine-3-carboxylic acid] | 12.5 to 150 (≈ 44.1 to 530 µM) | 12.5 to 150 (≈ 44.1 to 530 µM) | 12.5 to 150 (≈ 44.1 to 530 µM) | 1 to 3.5 (≈ 3.53 to 12.4 µM) | 12.5 to 150 (≈ 44.1 to 530 µM) | 12.5 to 150 (≈ 44.1 to 530 µM) | 12.5 to 150 (≈ 44.1 to 530 µM) | 12.5 to 150 (≈ 44.1 to 530 µM) | 12.5 to 150 (≈ 44.1 to 530 µM) | 12.5 to 150 (≈ 44.1 to 530 µM) | – |
| CCCCCCNCc1cc2cc(-c3[nH]c(=O)c(C(=O)O)c(O)c3CC)ccc2n1C [Cpd 335, 5-ethyl-6-(2-((hexylamino)methyl)-1-methyl-1H-indol-5-yl)-4-hydroxy-2-oxo-1,2-dihydropyridine-3-carboxylic acid] | 1 to 3.5 (≈ 2.35 to 8.23 µM) | 12.5 to 150 (≈ 29.4 to 353 µM) | 1 to 3.5 (≈ 2.35 to 8.23 µM) | < 1 | 1 to 3.5 (≈ 2.35 to 8.23 µM) | 3.5 to 12.5 (≈ 8.23 to 29.4 µM) | 12.5 to 150 (≈ 29.4 to 353 µM) | 12.5 to 150 (≈ 29.4 to 353 µM) | 12.5 to 150 (≈ 29.4 to 353 µM) | < 1 | – |
| CCCCCCCCCNCc1cc2cc(-c3[nH]c(=O)c(C(=O)O)c(O)c3CC)ccc2n1C [Cpd 338, 5-ethyl-4-hydroxy-6-(1-methyl-2-((nonylamino)methyl)-1H-indol-5-yl)-2-oxo-1,2-dihydropyridine-3-carboxylic acid] | 12.5 to 150 (≈ 26.7 to 321 µM) | 12.5 to 150 (≈ 26.7 to 321 µM) | 3.5 to 12.5 (≈ 7.48 to 26.7 µM) | 1 to 3.5 (≈ 2.14 to 7.48 µM) | 12.5 to 150 (≈ 26.7 to 321 µM) | 12.5 to 150 (≈ 26.7 to 321 µM) | 12.5 to 150 (≈ 26.7 to 321 µM) | 12.5 to 150 (≈ 26.7 to 321 µM) | 12.5 to 150 (≈ 26.7 to 321 µM) | 12.5 to 150 (≈ 26.7 to 321 µM) | – |
| CCCCCNCc1cc2cc(-c3[nH]c(=O)c(C(=O)O)c(O)c3CC)ccc2n1C [Cpd 334, 5-ethyl-4-hydroxy-6-(1-methyl-2-((pentylamino)methyl)-1H-indol-5-yl)-2-oxo-1,2-dihydropyridine-3-carboxylic acid] | 12.5 to 150 (≈ 30.4 to 365 µM) | 12.5 to 150 (≈ 30.4 to 365 µM) | 12.5 to 150 (≈ 30.4 to 365 µM) | < 1 | 1 to 3.5 (≈ 2.43 to 8.51 µM) | 1 to 3.5 (≈ 2.43 to 8.51 µM) | 12.5 to 150 (≈ 30.4 to 365 µM) | 12.5 to 150 (≈ 30.4 to 365 µM) | 12.5 to 150 (≈ 30.4 to 365 µM) | < 1 | – |
| CCc1c(-c2ccc3c(c2)c(C#N)c(OC)n3C)[nH]c(=O)c(C(=O)O)c1O [Cpd 362, 6-(3-cyano-2-methoxy-1-methyl-1H-indol-5-yl)-5-ethyl-4-hydroxy-2-oxo-1,2-dihydropyridine-3-carboxylic acid] | 12.5 to 150 (≈ 34 to 408 µM) | 12.5 to 150 (≈ 34 to 408 µM) | 3.5 to 12.5 (≈ 9.53 to 34 µM) | 1 to 3.5 (≈ 2.72 to 9.53 µM) | 12.5 to 150 (≈ 34 to 408 µM) | 12.5 to 150 (≈ 34 to 408 µM) | 12.5 to 150 (≈ 34 to 408 µM) | 12.5 to 150 (≈ 34 to 408 µM) | 12.5 to 150 (≈ 34 to 408 µM) | 12.5 to 150 (≈ 34 to 408 µM) | – |
